Test [1] has as its target α-glucosidase (Rattus norvegicus, UniProt P23739). As to the kind of experiment: α-glucosidase inhibition, crude enzyme preparation from rat small intestine mucous membrane. It counts as biochemical. As to the method: (§1) (2) A crude enzyme preparation obtained from rat small intestine mucous membrane prepared according to the method as described in Arne Dahlqvist, Anal. Biochem., 7:18-25 (1964) was used to measure the activity of inhibiting α-glucosidase of agarotetraose or agarohexaose prepared in Referential Example 1 in vitro as follows.
(§2) For the enzymatic reaction, 80 μl of a solution of sucrose, maltose, treharose or soluble starch as a substrate in 10 mM phosphate buffer (pH 7.0) at a final concentration of 100 mM (0.5% in case of soluble starch) was added to 10 μl of a test sample solution appropriately diluted with the same buffer. 10 μl of the crude enzyme solution prepared from rat small intestine was added thereto. The mixture was reacted at 37° C. for 20 minutes. The enzymatic activity was determined as follows as the amount of glucose generated in the reaction mixture: 3 ml of a reagent for glucose measurement (Wako Pure Chemical Industries) was added to the reaction mixture, reaction was carried out at 37° C. for 5 minutes, and then the absorbance at 505 nm was measured. The inhibitory activity on the digestion of each substrate was expressed as a remaining activity (%) against the control, which was calculated based on the activity measured as described above for each of four different concentrations. The remaining activities (%) on the respective substrates in the presence of agarotetraose are shown in Table 2, whereas the remaining activities (%) on the respective substrates in the presence of agarohexaose are shown in Table 3.

The test system of test [2] is α-glucosidase. The test is described as above. It counts as biochemical. Here is the method:
as §1, §2

The subject of another test is cyclooxygenase 2 mRNA. As to the kind of experiment: LPS-induced cyclooxygenase 2 mRNA synthesis in RAW264.7 cells (RT-PCR). It counts as cell-based. The conditions noted are these: 50 μl of 10 mM solution per 5 ml, added 0 or 6 hours before LPS. As to the method: (2) RAW264.7 cells (ATCC TIB 71) were suspended in Dulbecco's modified Eagle's medium (Bio Whittaker, 12-604F) containing 10% fetal calf serum (Gibco) at a concentration of 3×10^5 cells/ml. 5 ml of the suspension was added to each well of a 6-well microtiter plate and the plate was incubated at 37° C. overnight in the presence of 5% CO2. 50 μl of a solution containing agarobiose or agarohexaose at a concentration of 10 mM in water was added to the well. The plate was incubated for 0 or 6 hours. 50 μl of a solution containing lipopolysaccharide (LPS, Sigma, L-2012) at a concentration of 100 μg/ml in water was added to the well. The plate was incubated for additional 5 hours. The culture supernatant was removed, and 1 ml of a solution of Catrimox-14 (a product of Iowa Biotechnology sold by Takara Shuzo, WA002) was added to the well. After pipetting, the solution was collected. An RNA was prepared according to the attached protocol. The RNA prepared as described above was subjected to RT-PCR using RNA-PCR Kit (AMV) Ver. 2.1 (Takara Shuzo, R019A). A reverse transcription reaction was conducted using a random primer (N6) (Takara Shuzo, 3801) at 30° C. for 10 minutes, at 42° C. for 30 minutes and 99° C. for 5 minutes. […]

The subject of test [3] is enzymes involved in the synthesis of prostaglandin E2 from arachidonic acid. As to the kind of experiment: Prostaglandin E2 generation from arachidonic acid, sample added directly to crude enzyme fraction. It counts as biochemical. The conditions noted are these: 1 μL of 100 mM agarobiose, 100 mM agarohexaose, 10 mM DGE or 13 mM nimesulide added to 100 μL crude enzyme fraction; FIG. 15. As to the method:
2.5 μL of 200 mM aqueous solution of glutathione, 2.5 μL of a suspension containing L-adrenaline at a concentration of 200 mM in water, and 1 μL of 100 mM aqueous solution of agarobiose, 100 mM aqueous solution of agarohexaose or 10 mM aqueous solution of DGE as a sample were added to 100 μL of the control sample from the crude enzyme fraction prepared in Example 15. 1 μL of water was added as a negative control. 1 μL of 13 mM nimesulide (Cayman, 70640) solution was added as a positive control. 1 μL of 3 mM arachidonic acid solution was then added to start the reaction. The mixture was reacted at 37° C. for 5 minutes. The reaction was stopped by heating at 100° C. for 2 minutes. The content of prostaglandin E2 in the reaction mixture was measured using Prostaglandin E2 ELISA Kit.

[4] abbreviates: substrate Soluble starch, 0.2 mM.
Where [5] appears, read: substrate Soluble starch, 0.5 mM.
Setting [6] is: substrate Soluble starch, 1.0 mM.
[7] abbreviates: substrate Soluble starch, 2.0 mM.

Three compounds from US6608032B1, “Medicinal compositions” (Takara Shuzo Co., Ltd., priority 1999, dated 2003) can be followed below.

SMILES strings stand for the structures.

Sequence of α-glucosidase (Rattus norvegicus, UniProt P23739) (P23739 whole entry): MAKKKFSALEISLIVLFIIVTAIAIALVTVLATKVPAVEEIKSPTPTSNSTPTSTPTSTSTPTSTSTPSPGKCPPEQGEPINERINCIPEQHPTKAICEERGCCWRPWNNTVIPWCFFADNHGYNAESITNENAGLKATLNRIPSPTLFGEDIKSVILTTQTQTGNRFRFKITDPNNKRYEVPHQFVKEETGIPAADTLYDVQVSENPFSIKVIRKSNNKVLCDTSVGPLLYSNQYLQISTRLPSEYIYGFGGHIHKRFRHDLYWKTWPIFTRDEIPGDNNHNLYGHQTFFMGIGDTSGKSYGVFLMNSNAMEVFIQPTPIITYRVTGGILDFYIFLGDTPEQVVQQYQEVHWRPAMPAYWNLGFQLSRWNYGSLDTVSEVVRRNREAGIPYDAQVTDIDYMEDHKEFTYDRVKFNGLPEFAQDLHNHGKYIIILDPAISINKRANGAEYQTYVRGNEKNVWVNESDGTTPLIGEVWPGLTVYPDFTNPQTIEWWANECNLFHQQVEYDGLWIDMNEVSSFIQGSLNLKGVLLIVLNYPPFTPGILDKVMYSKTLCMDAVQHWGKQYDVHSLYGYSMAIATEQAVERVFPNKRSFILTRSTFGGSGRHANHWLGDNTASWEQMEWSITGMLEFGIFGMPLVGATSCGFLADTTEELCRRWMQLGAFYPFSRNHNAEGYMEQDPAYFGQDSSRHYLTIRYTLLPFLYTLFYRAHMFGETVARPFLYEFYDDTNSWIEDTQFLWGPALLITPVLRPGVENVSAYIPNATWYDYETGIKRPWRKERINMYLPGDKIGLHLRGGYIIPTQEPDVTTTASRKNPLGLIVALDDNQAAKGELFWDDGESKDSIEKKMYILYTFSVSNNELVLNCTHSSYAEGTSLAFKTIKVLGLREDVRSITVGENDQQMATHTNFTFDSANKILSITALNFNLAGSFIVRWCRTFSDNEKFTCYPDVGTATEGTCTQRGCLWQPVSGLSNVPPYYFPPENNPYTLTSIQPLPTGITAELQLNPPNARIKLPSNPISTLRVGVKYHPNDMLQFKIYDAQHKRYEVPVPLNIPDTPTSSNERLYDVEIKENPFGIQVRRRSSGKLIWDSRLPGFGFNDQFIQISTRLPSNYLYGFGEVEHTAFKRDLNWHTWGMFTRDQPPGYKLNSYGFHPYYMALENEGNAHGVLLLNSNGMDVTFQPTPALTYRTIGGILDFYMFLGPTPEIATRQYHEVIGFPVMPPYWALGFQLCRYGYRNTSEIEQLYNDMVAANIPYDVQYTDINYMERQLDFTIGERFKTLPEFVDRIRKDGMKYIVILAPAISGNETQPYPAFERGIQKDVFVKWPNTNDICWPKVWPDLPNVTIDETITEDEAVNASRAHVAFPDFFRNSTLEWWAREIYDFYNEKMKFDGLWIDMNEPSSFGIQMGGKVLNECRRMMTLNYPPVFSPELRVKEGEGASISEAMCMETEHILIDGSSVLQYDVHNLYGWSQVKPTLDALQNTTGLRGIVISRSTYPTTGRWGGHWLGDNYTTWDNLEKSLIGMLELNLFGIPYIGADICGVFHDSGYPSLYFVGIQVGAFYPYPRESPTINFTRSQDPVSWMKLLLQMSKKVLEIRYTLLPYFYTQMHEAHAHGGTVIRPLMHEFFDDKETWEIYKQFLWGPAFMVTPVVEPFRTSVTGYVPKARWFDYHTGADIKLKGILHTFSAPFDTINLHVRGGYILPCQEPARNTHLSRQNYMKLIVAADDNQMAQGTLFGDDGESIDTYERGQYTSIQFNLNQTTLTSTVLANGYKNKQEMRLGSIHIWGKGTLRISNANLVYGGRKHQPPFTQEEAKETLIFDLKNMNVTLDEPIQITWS

As a reminder, the remaining activity is the signal under treatment as a percentage of the control signal. Lower therefore signals a large loss of activity. On α-glucosidase [1], `OCC1OC(OC2C3COC2C(O)C(OC2C(O)C(CO)OC(OC4C5COC4C(O)C(OC4C(O)C(CO)OC(OC6C7COC6C(O)C(O)O7)C4O)O5)C2O)O3)C(O)C(O)C1O` (stereo not drawn) [Agarohexaose, agarohexaose] yielded a remaining activity at 200 µM of 92%. On α-glucosidase [1], the remaining activity at 500 µM turned out to be 85%. Moreover, the remaining activity at 1000 µM on α-glucosidase [1] amounted to 81%. Moreover, the remaining activity at 2000 µM on α-glucosidase [1] was determined as 70%. Moreover, the “Remaining activity (%)” value in the test on α-glucosidase [2] (substrate Maltose, 0.2 mM) was determined as 98%; in the test on α-glucosidase [2] (substrate Maltose, 0.5 mM), 100%; with α-glucosidase [2] (substrate Maltose, 1.0 mM), 91%; in the test on α-glucosidase [2] (substrate Maltose, 2.0 mM) it was 92%; in the test on α-glucosidase [2] (setting [4]), 100%; with α-glucosidase [2] (setting [5]), 97%. Further, the “Remaining activity (%)” value was 96% in the test on α-glucosidase [2] (setting [6]); 97% with α-glucosidase [2] (setting [7]); 100% in the test on α-glucosidase [2] (substrate Trehalose, 0.2 mM); 100% with α-glucosidase [2] (substrate Trehalose, 0.5 mM); 100% in the test on α-glucosidase [2] (substrate Trehalose, 1.0 mM); 93% in the test with α-glucosidase [2] (substrate Trehalose, 2.0 mM). The “increase in the cyclooxygenase 2 mRNA synthesis induced by LPS” value in the test on cyclooxygenase 2 mRNA was “not suppressed”. Also, in test [3], the “production of prostaglandin E2 from arachidonic acid” value is recorded as “not suppressed”.

With `OCC1OC(OC2C3COC2C(O)C(OC2C(O)C(CO)OC(OC4C5COC4C(O)C(O)O5)C2O)O3)C(O)C(O)C1O` (stereo not drawn) [Agarotetraose, agarotetraose], the remaining activity at 200 µM at α-glucosidase [1] amounted to 92%. Moreover, the remaining activity at 500 µM at α-glucosidase [1] is 85%. Further, the remaining activity at 1000 µM at α-glucosidase [1] was found to be 83%. This compound returned a remaining activity at 2000 µM at α-glucosidase [1] of 72%. Moreover, the “Remaining activity (%)” value in the test on α-glucosidase [2] (substrate Maltose, 0.2 mM) came to 97%; with α-glucosidase [2] (substrate Maltose, 0.5 mM) it was 95%; in the test with α-glucosidase [2] (substrate Maltose, 1.0 mM), 100%; in the test with α-glucosidase [2] (substrate Maltose, 2.0 mM), 98%; with α-glucosidase [2] (setting [4]), 100%; in the test on α-glucosidase [2] (setting [5]), 96%. The “Remaining activity (%)” value is given as 97% in the test with α-glucosidase [2] (setting [6]); 91% in the test with α-glucosidase [2] (setting [7]); 100% with α-glucosidase [2] (substrate Trehalose, 0.2 mM); 100% in the test with α-glucosidase [2] (substrate Trehalose, 0.5 mM); 100% with α-glucosidase [2] (substrate Trehalose, 1.0 mM); 93% in the test with α-glucosidase [2] (substrate Trehalose, 2.0 mM).

Regarding `OC[C@H]1O[C@@H](O[C@H]2[C@H]3OC[C@@H]2OC(O)[C@H]3O)[C@H](O)[C@@H](O)[C@H]1O` (mixture of isomers) [Agarobiose, agarobiose], the “increase in the cyclooxygenase 2 mRNA synthesis induced by LPS” value in the test with cyclooxygenase 2 mRNA is given as “not suppressed”. Further, in test [3], the “production of prostaglandin E2 from arachidonic acid” value is “not suppressed”.
